This is an account of results in EP0190900A2, “Cephalosporin compounds, their production, and pharmaceutical compositions containing them” (YAMANOUCHI PHARMACEUTICAL CO. LTD., priority 1985, dated 1986).

Converted amounts (≈) assume the structure as drawn.

In one data set the test system is S. epidermidis IID 866. Kind of data set: Antibacterial activity (minimum effective inhibitory concentration). It counts as cell-based. The following applies: Staphylococcus epidermidis, IID866. An excerpt: (§1) Antibacterial activities (minimum effective inhibitory concentrations) of compounds of formula I (taken from the following Examples) are shown in the following Table.

The next data set relates to K. pneumoniae ATCC 10031. The description is as above. Format: cell-based. The following applies: Klebsiella pneumoniae, ATCC10031.
From the text: as §1

The next data set concerns P. aeruginosa NCTC 10490. Described as above. The note with it: Pseudomonas aeruginosa, NCTC10490. It counts as cell-based.
From the text: as §1

The next data set relates to S. aureus FDA 209P JC-1. The description is as above. It counts as cell-based. The note with it: Staphylococcus aureus, FDA209P.
From the text: as §1

A further data set relates to E. coli D-1. The data set is described as above. It counts as cell-based. The following applies: Escherichia coli, D1.
From the text: as §1

A short description of data set [1]: Acute toxicity, intravenous injection into mice. It counts as in vivo. On the procedure:
Some of the compounds of this invention have low toxicity (acute toxicity).
The compound of Example 4 has, in particular, low toxicity.
200 mg of /the compound of Example 4 was dissolved in 2 ml of distilled water and after adjusting the pH of the solution to about 7 by addition of sodium hydrogen carbonate to form an injection solution, the solution was intravenously injected into mice (body weights: 26-28 g; ICR ? 5W) over a period of 4 minutes at a rate of 1 ml/kg. There were no lethal cases for administration doses below 4.0 g/kg.

In general, MIC refers to the lowest concentration found to suppress growth. Read a high MIC as a need for much substance. For the compound `CO/N=C(\C(=O)N[C@@H]1C(=O)N2C(C(=O)O)=C(CSc3nnnn3C)CS[C@H]12)c1csc(N)n1` [Cefmeno-xime], the MIC in the data set on S. epidermidis IID 866 is 0.39 µg/mL (≈ 0.762 µM); against K. pneumoniae ATCC 10031, not above 0.006 µg/mL; against P. aeruginosa NCTC 10490 it was 0.2 µg/mL (≈ 0.391 µM); in the data set with S. aureus FDA 209P JC-1, 1.56 µg/mL (≈ 3.05 µM); with E. coli D-1, 0.025 µg/mL (≈ 0.0489 µM).
`CO/N=C(\C(=O)N[C@@H]1C(=O)N2C(C(=O)[O-])=C(CSc3cc[n+](CC#N)cc3)CS[C@H]12)c1csc(N)n1` [Example 1, (Z)-7-[α-(2-amino-4-thiazolyl)-α-(methoxyimino)acetamido]-3-(1-cyanomethyl-4-pyridinio)thiomethyl-Δ^3-cephem-4-carboxylate]: the minimal inhibitory concentration (MIC) in the data set on S. epidermidis IID 866 came to 0.1 µg/mL (≈ 0.183 µM); in the data set with K. pneumoniae ATCC 10031 it was 0.013 µg/mL (≈ 0.0238 µM); in the data set with P. aeruginosa NCTC 10490, 0.39 µg/mL (≈ 0.715 µM); against S. aureus FDA 209P JC-1 it was 0.2 µg/mL (≈ 0.367 µM); against E. coli D-1, 0.013 µg/mL (≈ 0.0238 µM).
Take `CO/N=C(\C(=O)N[C@@H]1C(=O)N2C(C(=O)[O-])=C(CSc3cc[n+](CC(C)=O)cc3)CS[C@H]12)c1csc(N)n1` [Example 4, (Z)-7-[α-(2-amino-4-thiazolyl)-α-(methoxyimino)acetamido]-3-[1-acetonyl-4-pyridinio)thiomethyl-Δ^3-cephem-4-carboxylate]: the MIC was 0.1 µg/mL (≈ 0.178 µM) against S. epidermidis IID 866; not above 0.006 µg/mL in the data set on K. pneumoniae ATCC 10031; 0.2 µg/mL (≈ 0.355 µM) against P. aeruginosa NCTC 10490; 0.2 µg/mL (≈ 0.355 µM) against S. aureus FDA 209P JC-1; not above 0.006 µg/mL against E. coli D-1. The “administration doses with no lethal cases” value in data set [1] (ICR mice (26-28 g), intravenous injection over 4 minutes, aqueous solution at about pH 7) is reported as “below 4.0 g/kg”. In addition, in data set [1] (statement in words), the “toxicity (acute toxicity)” value was “low toxicity”.
For the compound `C#CC[n+]1ccc(SCC2=C(C(=O)[O-])N3C(=O)[C@@H](NC(=O)/C(=N\OC)c4csc(N)n4)[C@H]3SC2)cc1` [Example 9, (Z)-7-[a-(2-amino-4-thiazolyl)-a-(methoxyimino)acetamido]-3-[1-propargyl-4-pyridinio]thiomethyl-Δ^3-cephem-4-carboxylate], the MIC is 0.1 µg/mL (≈ 0.184 µM) in the data set with S. epidermidis IID 866; not above 0.006 µg/mL against K. pneumoniae ATCC 10031; 0.39 µg/mL (≈ 0.716 µM) in the data set on P. aeruginosa NCTC 10490; 0.1 µg/mL (≈ 0.184 µM) against S. aureus FDA 209P JC-1; not above 0.006 µg/mL against E. coli D-1.
`CC(=O)C[n+]1ccc(SCC2=C(C(=O)[O-])N3C(=O)C(NC(=O)C(=NOCCF)c4csc(N)n4)C3SC2)cc1` (stereo not drawn) [Example 12, (Z)-7-[α-(2-amino-4-thiazolyl)-α-(2-fluoroethoxyimino)acetamidoa-3-[1-acetonyl-4-pyridinio]thiomethyl-Δ^3-cephem-4-carboxylate]: the MIC is 0.1 µg/mL (≈ 0.168 µM) in the data set on S. epidermidis IID 866; 0.013 µg/mL (≈ 0.0219 µM) with K. pneumoniae ATCC 10031; 0.39 µg/mL (≈ 0.656 µM) in the data set with P. aeruginosa NCTC 10490; 0.2 µg/mL (≈ 0.336 µM) against S. aureus FDA 209P JC-1; 0.025 µg/mL (≈ 0.042 µM) against E. coli D-1.
For `CO/N=C(\C(=O)N[C@@H]1C(=O)N2C(C(=O)[O-])=C(CSc3cc[n+](Cc4c[nH]cn4)cc3)CS[C@H]12)c1csc(N)n1` [Example 15, (Z)-7-[α-(2-amino-4-thiazolyl)-α-(methoxyimino)acetamido]-3-(1-(4-imidazolyl)methyl-4-pyridinio)thiomethyl-Δ^3-cephem-4-carboxylate], in that order: 0.1 µg/mL (≈ 0.17 µM), 0.013 µg/mL (≈ 0.0222 µM), 0.39 µg/mL (≈ 0.665 µM), 0.2 µg/mL (≈ 0.341 µM) and 0.013 µg/mL (≈ 0.0222 µM).
Regarding `CON=C(C)C[n+]1ccc(SCC2=C(C(=O)[O-])N3C(=O)C(NC(=O)C(=NOC)c4csc(N)n4)C3SC2)cc1` (stereo not drawn) [Example 17, (Z)-7-[α-(2-amino-4-thiazolyl)-α-(methoxyimino)acetamido]-3-(1-(2-methoxyimino-propyl)-4-pyridinio)thiomethyl-Δ^3-cephem-4-carboxylate], the minimum inhibitory concentration (MIC) was determined as 0.2 µg/mL (≈ 0.338 µM) against S. epidermidis IID 866; 0.013 µg/mL (≈ 0.022 µM) against K. pneumoniae ATCC 10031; 0.78 µg/mL (≈ 1.32 µM) against P. aeruginosa NCTC 10490; 0.2 µg/mL (≈ 0.338 µM) with S. aureus FDA 209P JC-1; 0.013 µg/mL (≈ 0.022 µM) against E. coli D-1.
As for `CCCC(=O)C[n+]1ccc(SCC2=C(C(=O)[O-])N3C(=O)C(NC(=O)C(=NOC)c4csc(N)n4)C3SC2)cc1` (stereo not drawn) [Example 20, (Z)-7-[α-(2-Amino-4-thiazolyl)-α-(methoxyimino)acetamido]-3-[(1-(2-oxopentyl)-4-pyridinio]thiomethyl-Δ^3-cephem-4-carboxylate], the minimal inhibitory concentration (MIC) is 0.1 µg/mL (≈ 0.169 µM) in the data set with S. epidermidis IID 866; not above 0.006 µg/mL against K. pneumoniae ATCC 10031; 0.39 µg/mL (≈ 0.66 µM) in the data set with P. aeruginosa NCTC 10490; 0.2 µg/mL (≈ 0.339 µM) with S. aureus FDA 209P JC-1; not above 0.006 µg/mL against E. coli D-1.
